Measurements from ChEMBL document CHEMBL3525969 (Drug Metab Dispos, 2011).
Blank lines part the entries; values can stand above or below the compound they belong to.

Assays:
[1] = biological target: T1, CYP3A4 (Homo sapiens, UniProt P08684); experiment: Ratio of Kinact to Ki for CYP3A4 (unknown origin); format: ADME
[2] = biological target: T2, Cytochrome P450 2B6 (Homo sapiens, UniProt P20813); experiment: Inhibition of human His-tagged CYP2B6 expressed in Escherichia coli TOPP3 using 7-ethoxy-4-(trifluoromethyl)coumarin as substrate after 15 mins by fluorescence assay in presence of NADPH and cytochrome b5; format: ADME; settings: 0.25 h
T2 sequence (P20813 whole entry): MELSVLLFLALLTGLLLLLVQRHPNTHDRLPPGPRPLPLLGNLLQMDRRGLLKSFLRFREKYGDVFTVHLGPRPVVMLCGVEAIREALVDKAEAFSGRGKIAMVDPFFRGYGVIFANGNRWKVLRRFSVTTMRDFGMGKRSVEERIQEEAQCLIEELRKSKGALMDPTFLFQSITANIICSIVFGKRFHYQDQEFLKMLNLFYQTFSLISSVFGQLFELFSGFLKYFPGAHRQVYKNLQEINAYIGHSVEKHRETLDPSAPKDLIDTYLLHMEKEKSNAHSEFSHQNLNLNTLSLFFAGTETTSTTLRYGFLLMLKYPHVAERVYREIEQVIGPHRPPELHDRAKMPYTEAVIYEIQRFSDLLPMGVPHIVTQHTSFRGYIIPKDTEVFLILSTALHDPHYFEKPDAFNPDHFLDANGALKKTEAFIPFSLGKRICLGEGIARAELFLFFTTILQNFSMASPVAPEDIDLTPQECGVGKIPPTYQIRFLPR

[3] = biological target: T3, Cytochrome P450 3A4 (Homo sapiens, UniProt P08684); experiment: Inhibition of His-tagged CYP3A4 (unknown origin) expressed in Escherichia coli TOPP3 using BFC as substrate after 15 mins by fluorescence assay in presence of NADPH; format: ADME; settings: 0.25 h
[4] = Cmax in human; format: ADME, organism-based; settings: in vivo
[5] = biological target: T3, Cytochrome P450 3A4; experiment: Inhibition of human His-tagged CYP3A4 expressed in Escherichia coli TOPP3 using BFC as substrate at 100 uM after 30 mins by spectrophotometry in presence of cytochrome b5; format: ADME; settings: 0.5 h
[6] = biological target: T4, CYP3A5 (Homo sapiens, UniProt P20815); experiment: Inhibition of human His-tagged CYP3A5 expressed in Escherichia coli TOPP3 using BFC as substrate assessed as residual activity after 10 mins by fluorescence assay in presence of NADPH and cytochrome b5 relative to control; format: ADME; settings: probe BFC, read-out: Activity
[7] = biological target: T1, CYP3A4; experiment: Inhibition of human His-tagged CYP3A4 expressed in Escherichia coli TOPP3 using BFC as substrate at 100 uM after 30 mins by spectrophotometry in presence of NADPH and cytochrome b5 relative to control; format: ADME; settings: probe BFC
[8] = biological target: T4, CYP3A5; experiment: Inhibition of human His-tagged CYP3A5 expressed in Escherichia coli TOPP3 using BFC as substrate assessed as residual activity after 30 mins by fluorescence assay in presence of NADPH and cytochrome b5 relative to control; format: ADME; settings: probe BFC, read-out: Activity
[9] = biological target: T3, Cytochrome P450 3A4; experiment: Inhibition of human His-tagged CYP3A4 expressed in Escherichia coli TOPP3 using BFC as substrate assessed as unmodified heme at 100 uM after 30 mins by HPLC analysis in presence of NADPH and cytochrome b5; format: ADME; settings: 0.5 h
[10] = biological target: T5, Cytochrome P450 2D6 (Homo sapiens, UniProt P10635); experiment: Inhibition of human His-tagged CYP2D6 expressed in Escherichia coli TOPP3 using 7-ethoxy-4-(trifluoromethyl)coumarin as substrate after 15 mins by fluorescence assay in presence of NADPH and cytochrome b5; format: ADME; settings: 0.25 h
[11] = biological target: T3, Cytochrome P450 3A4; experiment: Inhibition of human His-tagged CYP3A4 expressed in Escherichia coli TOPP3 using BFC as substrate after 15 mins by fluorescence assay in presence of NADPH and cytochrome b5; format: ADME; settings: 0.25 h
[12] = biological target: T4, CYP3A5; experiment: Inhibition of human His-tagged CYP3A5 expressed in Escherichia coli TOPP3 using BFC as substrate assessed as residual activity by fluorescence assay in presence of cytochrome b5; format: ADME; settings: probe BFC
[13] = biological target: T6, Cytochrome P450 3A5 (Homo sapiens, UniProt P20815); experiment: Inhibition of human His-tagged CYP3A5 expressed in Escherichia coli TOPP3 using BFC as substrate after 15 mins by fluorescence assay in presence of NADPH and cytochrome b5; format: ADME; settings: 0.25 h
[14] = biological target: T5, Cytochrome P450 2D6; experiment: Inhibition of human His-tagged CYP2D6 expressed in Escherichia coli TOPP3 using 7-ethoxy-4-(trifluoromethyl)coumarin as substrate after 15 mins by fluorescence assay in presence of NADPH; format: ADME; settings: 0.25 h
[15] = biological target: T1, CYP3A4; experiment: Inhibition of human His-tagged CYP3A4 expressed in Escherichia coli TOPP3 using BFC as substrate at 100 uM after 30 mins in presence of NADPH and cytochrome b5; format: ADME; settings: probe BFC
[16] = biological target: T1, CYP3A4; experiment: Inhibition of human His-tagged CYP3A4 expressed in Escherichia coli TOPP3 using BFC as substrate assessed as residual activity after 20 mins by fluorescence assay in presence of NADPH and cytochrome b5 relative to control; format: ADME; settings: probe BFC, read-out: Activity
[17] = biological target: T3, Cytochrome P450 3A4; experiment: Inhibition of human His-tagged CYP3A4 expressed in Escherichia coli TOPP3 using BFC as substrate at 10 to 100 uM by fluorescence assay in presence of NADPH and cytochrome b5; format: ADME; settings: TDE = time-dependent effect
[18] = biological target: T1, CYP3A4; experiment: Inhibition of human His-tagged CYP3A4 expressed in Escherichia coli TOPP3 using BFC as substrate assessed as residual activity by fluorescence assay in presence of cytochrome b5; format: ADME; settings: probe BFC
[19] = biological target: T4, CYP3A5; experiment: Inhibition of human His-tagged CYP3A5 expressed in Escherichia coli TOPP3 using BFC as substrate assessed as residual activity after 20 mins by fluorescence assay in presence of NADPH and cytochrome b5 relative to control; format: ADME; settings: probe BFC, read-out: Activity
[20] = biological target: T2, Cytochrome P450 2B6; experiment: Inhibition of human His-tagged CYP2B6 expressed in Escherichia coli TOPP3 using 7-ethoxy-4-(trifluoromethyl)coumarin as substrate after 15 mins by fluorescence assay in presence of NADPH; format: ADME; settings: 0.25 h
[21] = biological target: T6, Cytochrome P450 3A5; experiment: Inhibition of human His-tagged CYP3A5 expressed in Escherichia coli TOPP3 using BFC as substrate after 15 mins by fluorescence assay in presence of NADPH; format: ADME; settings: 0.25 h
[22] = biological target: T1, CYP3A4; experiment: Inhibition of human His-tagged CYP3A4 expressed in Escherichia coli TOPP3 using BFC as substrate assessed as residual activity after 10 mins by fluorescence assay in presence of NADPH and cytochrome b5 relative to control; format: ADME; settings: probe BFC, read-out: Activity
[23] = biological target: T1, CYP3A4; experiment: Inhibition of human His-tagged CYP3A4 expressed in Escherichia coli TOPP3 using BFC as substrate assessed as residual activity after 30 mins by fluorescence assay in presence of NADPH and cytochrome b5 relative to control; format: ADME; settings: probe BFC, read-out: Activity
[24] = biological target: T3, Cytochrome P450 3A4; experiment: Inhibition of His-tagged CYP3A4 (unknown origin) expressed in Escherichia coli TOPP3 using BFC as substrate after 15 mins by fluorescence assay in presence of NADPH and cytochrome b5; format: ADME; settings: 0.25 h

T1 sequence (P08684 whole entry): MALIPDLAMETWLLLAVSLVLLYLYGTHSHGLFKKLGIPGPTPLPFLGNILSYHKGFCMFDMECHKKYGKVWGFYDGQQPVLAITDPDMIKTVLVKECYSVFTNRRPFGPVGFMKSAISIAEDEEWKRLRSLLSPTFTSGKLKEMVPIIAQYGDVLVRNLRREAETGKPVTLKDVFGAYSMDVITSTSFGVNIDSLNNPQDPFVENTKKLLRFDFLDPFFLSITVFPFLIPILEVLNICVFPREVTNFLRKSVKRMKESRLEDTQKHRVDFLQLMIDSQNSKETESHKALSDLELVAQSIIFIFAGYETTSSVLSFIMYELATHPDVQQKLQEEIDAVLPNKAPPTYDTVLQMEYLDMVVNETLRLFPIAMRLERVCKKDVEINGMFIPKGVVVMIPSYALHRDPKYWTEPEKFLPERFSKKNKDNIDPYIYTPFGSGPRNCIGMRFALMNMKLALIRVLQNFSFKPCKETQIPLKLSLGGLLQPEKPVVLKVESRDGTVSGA
T3 sequence (P08684 whole entry): as above
T4 sequence (P20815 whole entry): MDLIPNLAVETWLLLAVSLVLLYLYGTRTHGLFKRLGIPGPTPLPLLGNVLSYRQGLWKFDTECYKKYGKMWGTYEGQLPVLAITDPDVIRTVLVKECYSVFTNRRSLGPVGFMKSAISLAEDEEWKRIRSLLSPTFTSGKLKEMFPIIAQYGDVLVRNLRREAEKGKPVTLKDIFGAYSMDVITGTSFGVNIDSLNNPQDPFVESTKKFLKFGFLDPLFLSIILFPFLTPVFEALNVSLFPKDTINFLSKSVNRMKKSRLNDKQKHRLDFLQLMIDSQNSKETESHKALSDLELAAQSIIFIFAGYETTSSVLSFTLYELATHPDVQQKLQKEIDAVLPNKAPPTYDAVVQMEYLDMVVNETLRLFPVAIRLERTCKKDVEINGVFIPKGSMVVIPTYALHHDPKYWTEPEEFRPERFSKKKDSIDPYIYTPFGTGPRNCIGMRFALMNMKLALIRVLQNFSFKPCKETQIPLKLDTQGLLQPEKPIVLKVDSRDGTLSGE
T5 sequence (P10635 whole entry): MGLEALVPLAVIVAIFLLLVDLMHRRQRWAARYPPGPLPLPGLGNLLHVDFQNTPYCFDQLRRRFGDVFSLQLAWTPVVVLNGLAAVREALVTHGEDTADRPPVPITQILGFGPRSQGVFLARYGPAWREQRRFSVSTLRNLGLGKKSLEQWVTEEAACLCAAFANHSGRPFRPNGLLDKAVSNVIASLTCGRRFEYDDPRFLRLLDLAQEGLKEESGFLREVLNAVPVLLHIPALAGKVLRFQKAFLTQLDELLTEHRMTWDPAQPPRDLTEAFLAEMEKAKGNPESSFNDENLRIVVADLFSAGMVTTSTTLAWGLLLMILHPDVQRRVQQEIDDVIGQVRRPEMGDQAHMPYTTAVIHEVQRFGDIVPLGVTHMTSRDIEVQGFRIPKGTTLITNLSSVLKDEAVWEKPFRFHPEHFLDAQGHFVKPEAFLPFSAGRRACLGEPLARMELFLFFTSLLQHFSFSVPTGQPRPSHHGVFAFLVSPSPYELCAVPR
T6 sequence (P20815 whole entry): as the sequence (P20815 whole entry) above

SMILES: CC(C)=CCC/C(C)=C/COc1c2ccoc2cc2oc(=O)ccc12 [BERGAMOTTIN]
kinact/KI [1]: 667 M⁻¹ s⁻¹

SMILES: C#C[C@]1(O)CC[C@H]2[C@@H]3CCc4cc(O)ccc4[C@H]3CC[C@@]21C [ETHINYL ESTRADIOL]
kinact/KI [1]: 667 M⁻¹ s⁻¹

Results, then the compound that gave them:

kinact/KI [1]: 333 M⁻¹ s⁻¹
SMILES: CC#C[C@]1(O)CC[C@H]2[C@@H]3CCC4=CC(=O)CCC4=C3[C@@H](c3ccc(N(C)C)cc3)C[C@@]21C [MIFEPRISTONE]

inhibition (INH) [2]: Not Active | inhibition (INH) [3]: Active | Cmax [4]: 1700 nM | inhibition (INH) [5]: Not Active | activity at 10 min [6]: 113% | inhibition at 0.5 h, 100 µM [7]: 70% | activity at 0.5 h [8]: 98% | inhibition (INH) [9]: Active | inhibition (INH) [10]: Not Active | inhibition (INH) [11]: Dose-dependent effect | activity [12]: 100% | inhibition (INH) [13]: Not Active | inhibition (INH) [14]: Not Active | inhibition at 0.5 h, 100 µM [15]: 75% | activity at 20 min [16]: 50% | inhibition (INH) [17]: tde | activity [18]: 100% | activity at 20 min [19]: 109% | inhibition (INH) [20]: Not Active | inhibition (INH) [21]: Not Active | activity at 10 min [22]: 71% | activity at 0.5 h [23]: 39% | inhibition (INH) [24]: Active
SMILES: O=C(Nc1ccc(OC(F)(F)F)cc1)c1sccc1NCc1ccnc2ccccc12 [OSI-930]

kinact/KI [1]: 333 M⁻¹ s⁻¹
SMILES: CC/C(=C(\c1ccccc1)c1ccc(OCCN(C)C)cc1)c1ccccc1 [TAMOXIFEN]
